From publication PMC8005474 (Journal of neuro-oncology, 2021)
pKd: −log10 of the molar value.

Target: YAP1 (Yes-associated protein, YAP) (Homo sapiens, UniProt P46937)
Assay: SPR with immobilized full-length YAP
Format: binding

Sequence of YAP1 (Yes-associated protein, YAP) (P46937 whole entry): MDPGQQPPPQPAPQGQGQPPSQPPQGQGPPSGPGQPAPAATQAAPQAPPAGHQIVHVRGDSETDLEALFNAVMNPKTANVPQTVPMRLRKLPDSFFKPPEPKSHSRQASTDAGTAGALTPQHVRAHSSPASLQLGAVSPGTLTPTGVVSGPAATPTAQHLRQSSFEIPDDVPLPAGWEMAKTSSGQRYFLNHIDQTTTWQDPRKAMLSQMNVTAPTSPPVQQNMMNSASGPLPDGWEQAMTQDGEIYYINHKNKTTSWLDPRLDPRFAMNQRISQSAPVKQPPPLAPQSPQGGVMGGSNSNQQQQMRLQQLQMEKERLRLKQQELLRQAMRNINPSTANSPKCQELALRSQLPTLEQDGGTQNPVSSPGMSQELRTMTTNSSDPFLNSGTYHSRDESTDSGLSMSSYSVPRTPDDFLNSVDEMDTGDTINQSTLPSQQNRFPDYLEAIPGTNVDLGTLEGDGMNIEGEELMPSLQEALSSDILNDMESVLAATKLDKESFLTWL

pKd: 6.13
Structure (SMILES): COc1ccc(-c2cc(-c3ccccc3)nc3c2CC(=O)Nc2ccccc2-3)cc1OC [NSC682769]
